The compounds below were run on MCH receptors (assay: MCH receptor activity class (method not given)). Settings: class by percent of control at 10^-7 M or IC50.

SMILES | class
CN(C)c1cc(N[C@H]2CC[C@@H](NC(=O)Cc3c[nH]c4ccccc34)CC2)nc2ccccc12 [compound 711, N-(cis-4-{[4-(dimethylamino)quinolin-2-yl]amino}cyclohexyl)-2-(1H-indol-3-yl)acetamide] | 1 (Class 1: The value of percent of control at 10^−7 M was less than 40% or the value of IC50 was less than 50 nM.)
Cc1sc(-c2ccccc2)nc1CC(=O)N[C@H]1CC[C@@H](Nc2cc(N(C)C)c3ccccc3n2)CC1 [compound 712] | 3 (Class 3 The value of percent of control at 10^−7 M was more than 60% or the value of IC50 was more than 200 nM.)
COc1ccc(CSC2(CC(=O)N[C@H]3CC[C@@H](Nc4cc(N(C)C)c5ccccc5n4)CC3)CCCCC2)cc1 [compound 714] | 3 (Class 3 The value of percent of control at 10^−7 M was more than 60% or the value of IC50 was more than 200 nM.)
COc1ccc2c(CC(=O)N[C@H]3CC[C@@H](Nc4cc(N(C)C)c5ccccc5n4)CC3)cc(=O)oc2c1 [compound 715] | 3 (Class 3 The value of percent of control at 10^−7 M was more than 60% or the value of IC50 was more than 200 nM.)
Cc1cc(C)c(NC(=O)Nc2ccc(OC(F)(F)F)cc2)c(C(=O)N[C@H]2CC[C@@H](Nc3cc(N(C)C)c4ccccc4n3)CC2)c1 [compound 718] | 3 (Class 3 The value of percent of control at 10^−7 M was more than 60% or the value of IC50 was more than 200 nM.)
CN(C)c1cc(N[C@H]2CC[C@@H](NC(=O)c3cc(Cl)cc(Cl)c3NC(=O)C#Cc3ccccc3)CC2)nc2ccccc12 [compound 719] | 3 (Class 3 The value of percent of control at 10^−7 M was more than 60% or the value of IC50 was more than 200 nM.)
CN(C)c1cc(N[C@H]2CC[C@@H](NC(=O)Cc3ccccc3C(=O)Nc3ccc(Cl)cc3Cl)CC2)nc2ccccc12 [compound 723] | 3 (Class 3 The value of percent of control at 10^−7 M was more than 60% or the value of IC50 was more than 200 nM.)
Cc1c(C(=O)N[C@H]2CC[C@@H](Nc3cc(N(C)C)c4ccccc4n3)CC2)cc(-c2ccccc2)n1CCCN1CCOCC1 [compound 724] | 3 (Class 3 The value of percent of control at 10^−7 M was more than 60% or the value of IC50 was more than 200 nM.)
CN(C)c1cc(N[C@H]2CC[C@@H](NC(=O)CCCc3ccc([N+](=O)[O-])cc3)CC2)nc2ccccc12 [compound 725] | 3 (Class 3 The value of percent of control at 10^−7 M was more than 60% or the value of IC50 was more than 200 nM.)
CN(C)c1cc(N[C@H]2CC[C@@H](NC(=O)/C=C/c3ccccc3[N+](=O)[O-])CC2)nc2ccccc12 [compound 726] | 3 (Class 3 The value of percent of control at 10^−7 M was more than 60% or the value of IC50 was more than 200 nM.)
CN(C)c1cc(N[C@H]2CC[C@@H](NC(=O)Cc3cccc(Oc4ccccc4)c3)CC2)nc2ccccc12 [compound 727] | 3 (Class 3 The value of percent of control at 10^−7 M was more than 60% or the value of IC50 was more than 200 nM.)
CN(C)c1cc(N[C@H]2CC[C@@H](NC(=O)Cc3ccc(Oc4ccccc4)cc3)CC2)nc2ccccc12 [compound 728] | 3 (Class 3 The value of percent of control at 10^−7 M was more than 60% or the value of IC50 was more than 200 nM.)
CN(C)c1cc(N[C@H]2CC[C@@H](NC(=O)Cc3c(-c4ccccc4)[nH]c4ccccc34)CC2)nc2ccccc12 [compound 729, N-(cis-4-{[4-(dimethylamino)quinolin-2-yl]amino}cyclohexyl)-2-(2-phenyl-1H-indol-3-yl)acetamide] | 2 (Class 2: The value of percent of control at 10^−7 M was from 40% to 60% or the value of IC′50 was from 50 nM to 200 nM.)
CN(C)c1cc(N[C@H]2CC[C@@H](NC(=O)c3cccc(Oc4ccccc4)c3)CC2)nc2ccccc12 [compound 731] | 3 (Class 3 The value of percent of control at 10^−7 M was more than 60% or the value of IC50 was more than 200 nM.)
CN(C)c1cc(N[C@H]2CC[C@@H](NC(=O)c3ccccc3CCc3ccccc3)CC2)nc2ccccc12 [compound 732] | 3 (Class 3 The value of percent of control at 10^−7 M was more than 60% or the value of IC50 was more than 200 nM.)
